# Measured values taken from patent publication US11058902B2, “Compositions and methods for treating disease associated with permeability of intestinal epithelium” (9 Meters Biopharma, Inc., priority 2017, dated 2021).
# Read-outs that look alike come from different tables or passages of the source.
# What was measured:
# [1] = tested on: ischemic-injured porcine jejunum; test: Recovery of barrier function (transepithelial resistance, TER) in ischemic-injured porcine jejunum mucosa ex vivo in Ussing chambers; format: cell-based, Yorkshire-cross pigs; conditions: fragment added together with larazotide
# Text: Intestinal epithelial tight junction integrity is crucial to maintain an intact intestinal barrier against noxious luminal contents. […] Porcine mucosa injured by ischemia/reperfusion injury is abnormally permeable until interepithelial tight junctions have re-assembled.
# (§1) Yorkshire-cross pigs 6-8-weeks-of-age were anesthetized, followed by midline laparotomy and creation of a series of 10 cm intestinal loops commencing proximal to the ileum by ligating the intestinal lumen. The local mesenteric vasculature was ligated to select treatment loops for 45-min, whereas other loops were left as non-ischemic controls. Loops were subsequently resected, and the mucosal tissues were stripped in oxygenated (95% O2/5% CO2) Ringers from the muscle layers in preparation for ex vivo incubation in Ussing chambers. Tissues were monitored by measuring transepithelial resistance (TER) for 240-min. At the end of a 240-min recovery period, tissues were taken for histology and immunofluorescence evaluation of tight junction proteins.
# tight junction = test: Activity as tight junction regulators (larazotide fragments, alone or mixed with larazotide); conditions: for activity as tight junction regulators: fragment alone
# Text: In various embodiments, the methods of the invention comprise treating a subject with larazotide or derivative thereof. Larazotide is a peptide agent that promotes tight junction integrity in the gastrointestinal tract (GI). […] See US 2016/0022760, which is hereby incorporated by reference in its entirety. […] In accordance with this disclosure, it is believed that an aminopeptidase located within the brush borders of the lumen surface may create larazotide-derived fragments, including fragments missing N-terminal glycine residues.
# claudin 2 = conditions: tissues treated with larazotide
# Text: as §1
# occludin = conditions: tissues treated with larazotide
# Text: as §1
# celiac disease symptoms = conditions: clinical trials, cited from earlier work
Substance,effect of larazotide in the presence of the fragment [1],activity as tight junction regulators (tight junction),activity of full length larazotide when mixed with the two fragments (tight junction),pore (leak)-forming tight junction protein claudin 2 (claudin 2),localization of the tight junction sealing protein occludin (occludin),"reducing celiac disease symptoms (celiac disease symptoms; higher doses (e.g., 1 mg and 2 mg doses))","reducing celiac disease symptoms (celiac disease symptoms; lower doses (e.g., 0.5 mg dose))"
GVLVQPG [larazotide-derived fragment missing an N-terminal glycine residue],blocked,inactive,completely abolished,,,,
Gly Gly Val Leu Val Gin Pro Gly [larazotide],,,,reductions,increased localization,"attenuation of activity, or no activity at all",benefit at reducing celiac disease symptoms
VLVQPG [larazotide-derived fragment missing N-terminal glycine residues],blocked,inactive,completely abolished,,,,
